For assay [1], the target named is T1, human LXRβ ligand binding domain (Homo sapiens, UniProt P55055).
T1 construct: made in house; host or cells: E. coli BL21(DE3), vector pRSETa
T1 sequence (P55055 184-460 limits assumed): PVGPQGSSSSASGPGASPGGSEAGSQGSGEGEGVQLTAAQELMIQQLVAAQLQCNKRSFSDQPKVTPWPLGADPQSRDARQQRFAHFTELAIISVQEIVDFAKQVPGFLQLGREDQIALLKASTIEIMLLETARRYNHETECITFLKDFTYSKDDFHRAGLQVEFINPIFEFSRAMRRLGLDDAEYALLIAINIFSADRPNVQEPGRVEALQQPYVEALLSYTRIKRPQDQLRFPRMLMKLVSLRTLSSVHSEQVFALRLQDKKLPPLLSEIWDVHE
T1 sequence (Q15788 676-700 partner limits assumed): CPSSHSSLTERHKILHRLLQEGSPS
Description: Ligand Sensing Assay (LiSA) for LXRβ agonist activity (SRC1 peptide recruitment). Type of assay: biochemical. The settings on record: 1 μM; over a background reading of 10000 fluorescence units. The source says:
(§1) Test Method 1: Ligand Sensing Assay (LiSA) for LXRβ Agonist Activity
(§2) This assay measures the recruitment of a peptide derived from the coactivator protein, SRC1, to the agonist-bound LXR[…]. Peptides derived from other nuclear receptor cofactors may be similarly prepared and assayed.
To generate the human LXRβ ligand binding domain suitable for LiSA, a modified polyhistidine tag (MKKGHHHHHHG) (SEQ ID No. 1) was fused in frame to the human LXRβ ligand binding domain (amino acids 185–461 of Genbank accession number U07132) and subcloned into the expression vector pRSETa (Invitrogen) under the control of an IPTG inducible T7 promoter. The human LXRβ ligand binding domain was expressed in E. coli strain BL21(DE3). Ten-liter fermentation batches were grown in Rich PO4 media with 0.1 mg/mL Ampicillin at 25° C. for 12 hours, cooled to 9° C. and held at that temperature for 36 hours to a density of OD600=14. […]
Typically 25–50 g of cell paste is resuspended in 250–500 mL TBS, pH 8.0 (25 mM Tris, 150 mM NaCl). […] After washing to baseline absorbance with equilibration buffer, the column is washed with approximately one column volume of TBS pH […] containing 95 mM imidazole. […] After washing to baseline absorbance with the dilution buffer the protein is eluted with a gradient from 50–500 mM NaCl. […]

Assay [2] deals with T2, LXRα ligand binding domain (Homo sapiens, UniProt Q13133).
T2 construct: His tag; made in house; host or cells: E. coli BL21(DE3) by analogy with Test Method 1 (inferred)
T2 sequence (Q13133 183-447): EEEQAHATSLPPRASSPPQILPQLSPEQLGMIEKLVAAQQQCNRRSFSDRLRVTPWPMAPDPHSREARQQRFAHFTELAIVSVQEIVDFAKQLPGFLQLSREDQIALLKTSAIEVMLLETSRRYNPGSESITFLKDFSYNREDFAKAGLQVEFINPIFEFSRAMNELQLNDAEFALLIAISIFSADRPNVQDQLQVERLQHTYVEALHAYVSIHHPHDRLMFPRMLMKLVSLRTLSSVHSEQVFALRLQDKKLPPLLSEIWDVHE
T2 sequence (Q15788 676-700 partner): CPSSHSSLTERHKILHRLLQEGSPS
Description: Ligand Sensing Assay for LXRα agonist activity. Type of assay: biochemical. The following applies: 1 μM; over a background reading of 10000 fluorescence units. How it is done:
as §1, §2
The biotinylated protein was incubated for 20–25 minutes at a concentration of 5 nM in assay buffer (50 mM NaF, 50 mM MOPS-pH 7.5, 0.1 mg/ml FAF-BSA, 0.05 mM CHAPS, 10 mM DTT) with equimolar amounts of streptavidin-AlloPhycoCyanin (APC, Molecular Probes). […]
49 uL of the protein/peptide mixture was added to each well of an assay plate containing 1 ul of test compound serial diluted in 100% DMSO. […] The plates were incubated at room temp 2-hours and then counted on a Wallac Victor V fluorescent plate reader. […]
The assay for LXRα was run according to the procedures of Test Method 1, above using his-tagged LXRα ligand binding domain (amino acids 183–447 of Genbank accession number U22662, with the 14th amino acid corrected to A from R). In this assay 1 μM 24(S),25-epoxycholesterol gave a reading of 20000 fluorescence units over a background reading of 10000 fluorescence units.

Take `C[C@H](CC[C@@H]1OC1(C)C)[C@H]1CC[C@H]2[C@@H]3CC=C4C[C@@H](O)CC[C@]4(C)[C@H]3CC[C@]12C` [24(S),25-epoxycholesterol]: the reading in assay [1] and in assay [2] was 20000 fluorescence units each time.

The values are drawn from US7247748B2, “Amide compounds and methods of using the same” (SmithKline Corporation, priority 2002, dated 2007).
